Experimental data as given in ChEMBL document CHEMBL5465560, “Selectivity Literature for EUbOPEN Chemogenomic Library” (2024).

Assays:
[1] = molecular target: Serine/threonine-protein kinase pim-2 (Homo sapiens, UniProt Q9P1W9); assay: Selectivity interaction (KinomeScan (DiscoverX)) EUB0000595a PIM2; conditions: at 10 µM
[2] = molecular target: T1, Cyclin-dependent kinase 11A (Homo sapiens) (UniProt Q9UQ88); assay: Selectivity interaction (KinomeScan (DiscoverX)) EUB0000045b CDK11A; conditions: at 10 µM
T1 sequence (whole entry): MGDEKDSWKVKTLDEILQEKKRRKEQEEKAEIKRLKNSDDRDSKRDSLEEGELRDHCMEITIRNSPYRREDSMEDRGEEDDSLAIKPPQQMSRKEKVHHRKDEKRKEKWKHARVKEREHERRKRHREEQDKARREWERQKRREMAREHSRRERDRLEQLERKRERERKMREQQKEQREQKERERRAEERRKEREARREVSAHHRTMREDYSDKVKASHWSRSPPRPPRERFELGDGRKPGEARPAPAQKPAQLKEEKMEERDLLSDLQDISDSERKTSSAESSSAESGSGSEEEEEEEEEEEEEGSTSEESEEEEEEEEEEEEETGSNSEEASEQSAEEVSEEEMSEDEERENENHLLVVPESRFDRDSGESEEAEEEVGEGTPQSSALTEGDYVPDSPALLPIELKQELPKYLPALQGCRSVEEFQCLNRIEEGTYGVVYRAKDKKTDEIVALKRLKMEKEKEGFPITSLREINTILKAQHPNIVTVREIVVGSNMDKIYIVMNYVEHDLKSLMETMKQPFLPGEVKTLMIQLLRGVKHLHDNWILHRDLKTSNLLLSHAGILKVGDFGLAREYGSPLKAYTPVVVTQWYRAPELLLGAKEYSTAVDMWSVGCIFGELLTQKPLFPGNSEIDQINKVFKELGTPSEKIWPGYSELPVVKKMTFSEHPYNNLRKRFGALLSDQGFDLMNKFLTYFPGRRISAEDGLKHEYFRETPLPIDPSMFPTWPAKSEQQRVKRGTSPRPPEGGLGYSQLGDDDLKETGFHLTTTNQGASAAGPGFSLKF

[3] = molecular target: Casein kinase I isoform gamma-2 (Homo sapiens) (UniProt P78368); assay: Selectivity interaction (Kinase panel (Z-LYTE Assay)) EUB0001632a CSNK1G2; conditions: at 10 µM
Chain of Casein kinase I isoform gamma-2 (Homo sapiens) (P78368 whole entry, looked up, canonical isoform): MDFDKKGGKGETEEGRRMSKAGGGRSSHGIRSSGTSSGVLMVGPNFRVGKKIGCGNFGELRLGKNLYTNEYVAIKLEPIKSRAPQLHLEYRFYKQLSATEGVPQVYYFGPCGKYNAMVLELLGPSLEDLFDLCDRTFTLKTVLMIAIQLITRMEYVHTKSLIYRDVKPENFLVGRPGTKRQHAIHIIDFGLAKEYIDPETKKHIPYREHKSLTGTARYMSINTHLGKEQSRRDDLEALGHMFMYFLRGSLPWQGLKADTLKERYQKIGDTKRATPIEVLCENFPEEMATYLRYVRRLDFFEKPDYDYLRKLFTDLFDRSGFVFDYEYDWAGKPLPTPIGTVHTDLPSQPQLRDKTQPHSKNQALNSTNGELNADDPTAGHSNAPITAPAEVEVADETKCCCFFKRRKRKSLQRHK

[4] = molecular target: Cyclin-dependent kinase 7 (Homo sapiens, UniProt P50613); assay: Selectivity interaction (KinomeScan (DiscoverX)) EUB0000666a CDK7; conditions: at 10 µM
Chain of Cyclin-dependent kinase 7 (P50613 whole entry): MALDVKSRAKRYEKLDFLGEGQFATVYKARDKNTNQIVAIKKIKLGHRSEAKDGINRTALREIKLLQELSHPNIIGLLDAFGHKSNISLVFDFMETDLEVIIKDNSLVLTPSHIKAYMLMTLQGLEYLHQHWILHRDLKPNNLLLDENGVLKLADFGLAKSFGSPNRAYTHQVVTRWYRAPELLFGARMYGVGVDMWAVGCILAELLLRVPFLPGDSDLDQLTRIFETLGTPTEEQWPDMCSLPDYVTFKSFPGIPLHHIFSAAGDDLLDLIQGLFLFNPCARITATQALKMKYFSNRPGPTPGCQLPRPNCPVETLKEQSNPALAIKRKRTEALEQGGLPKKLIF

[5] = molecular target: Tyrosine-protein kinase ABL2 (Homo sapiens, UniProt P42684); conditions: at 10 µM
Chain of Tyrosine-protein kinase ABL2 (P42684 whole entry): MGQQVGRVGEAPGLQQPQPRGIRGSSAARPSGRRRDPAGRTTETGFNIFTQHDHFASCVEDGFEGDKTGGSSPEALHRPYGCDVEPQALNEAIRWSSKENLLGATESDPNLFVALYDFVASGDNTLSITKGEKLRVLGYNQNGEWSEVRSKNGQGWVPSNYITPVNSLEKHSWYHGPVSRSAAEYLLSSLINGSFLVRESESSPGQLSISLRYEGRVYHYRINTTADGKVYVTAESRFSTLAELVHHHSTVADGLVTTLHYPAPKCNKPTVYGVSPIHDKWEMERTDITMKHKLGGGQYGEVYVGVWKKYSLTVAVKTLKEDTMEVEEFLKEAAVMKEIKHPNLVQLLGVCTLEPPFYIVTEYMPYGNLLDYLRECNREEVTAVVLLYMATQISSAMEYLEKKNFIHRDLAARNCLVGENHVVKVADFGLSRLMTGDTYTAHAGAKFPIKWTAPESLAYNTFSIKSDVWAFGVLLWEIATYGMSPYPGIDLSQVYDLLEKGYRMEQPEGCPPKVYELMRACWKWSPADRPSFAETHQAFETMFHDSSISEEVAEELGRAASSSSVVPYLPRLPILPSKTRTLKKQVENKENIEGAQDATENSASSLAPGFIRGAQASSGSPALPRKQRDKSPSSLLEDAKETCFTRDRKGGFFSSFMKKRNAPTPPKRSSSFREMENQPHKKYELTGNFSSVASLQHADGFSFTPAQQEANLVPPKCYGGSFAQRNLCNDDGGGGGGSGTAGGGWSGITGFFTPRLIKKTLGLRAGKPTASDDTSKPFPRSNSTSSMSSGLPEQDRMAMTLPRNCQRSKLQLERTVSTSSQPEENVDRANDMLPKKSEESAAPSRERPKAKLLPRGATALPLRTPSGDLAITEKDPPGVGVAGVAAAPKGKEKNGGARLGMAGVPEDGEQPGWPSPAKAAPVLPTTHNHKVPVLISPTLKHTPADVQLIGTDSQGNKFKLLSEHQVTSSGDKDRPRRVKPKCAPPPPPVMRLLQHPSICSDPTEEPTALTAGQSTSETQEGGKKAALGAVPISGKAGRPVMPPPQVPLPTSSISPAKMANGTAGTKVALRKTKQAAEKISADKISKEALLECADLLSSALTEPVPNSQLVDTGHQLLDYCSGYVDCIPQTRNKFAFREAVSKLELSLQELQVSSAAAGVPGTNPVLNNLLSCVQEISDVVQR

[6] = molecular target: Serine/threonine-protein kinase PAK 1 (Homo sapiens) (UniProt Q13153); assay: Selectivity interaction (Kinase screening (Nanosyn)) EUB0000604a PAK1
Chain of Serine/threonine-protein kinase PAK 1 (Homo sapiens) (Q13153 whole entry): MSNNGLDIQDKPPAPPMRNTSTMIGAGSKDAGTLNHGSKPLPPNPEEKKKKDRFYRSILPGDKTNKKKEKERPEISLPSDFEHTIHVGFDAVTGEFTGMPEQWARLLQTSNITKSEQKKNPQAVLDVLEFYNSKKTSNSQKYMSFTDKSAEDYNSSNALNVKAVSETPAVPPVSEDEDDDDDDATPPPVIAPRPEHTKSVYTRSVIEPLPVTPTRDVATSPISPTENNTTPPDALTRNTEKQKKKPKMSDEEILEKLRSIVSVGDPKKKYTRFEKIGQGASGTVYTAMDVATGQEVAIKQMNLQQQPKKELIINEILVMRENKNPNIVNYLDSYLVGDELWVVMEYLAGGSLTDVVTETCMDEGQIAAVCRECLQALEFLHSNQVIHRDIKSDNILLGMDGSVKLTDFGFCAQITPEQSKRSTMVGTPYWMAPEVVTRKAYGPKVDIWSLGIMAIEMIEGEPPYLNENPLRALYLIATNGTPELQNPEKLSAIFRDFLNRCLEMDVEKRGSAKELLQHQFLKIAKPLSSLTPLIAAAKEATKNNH

[7] = molecular target: T2, G protein-coupled receptor kinase 3 (Homo sapiens) (UniProt P35626); assay: Selectivity interaction (KinomeScan (DiscoverX)) EUB0001049a ADRBK2; conditions: at 1 µM
T2 sequence (whole entry): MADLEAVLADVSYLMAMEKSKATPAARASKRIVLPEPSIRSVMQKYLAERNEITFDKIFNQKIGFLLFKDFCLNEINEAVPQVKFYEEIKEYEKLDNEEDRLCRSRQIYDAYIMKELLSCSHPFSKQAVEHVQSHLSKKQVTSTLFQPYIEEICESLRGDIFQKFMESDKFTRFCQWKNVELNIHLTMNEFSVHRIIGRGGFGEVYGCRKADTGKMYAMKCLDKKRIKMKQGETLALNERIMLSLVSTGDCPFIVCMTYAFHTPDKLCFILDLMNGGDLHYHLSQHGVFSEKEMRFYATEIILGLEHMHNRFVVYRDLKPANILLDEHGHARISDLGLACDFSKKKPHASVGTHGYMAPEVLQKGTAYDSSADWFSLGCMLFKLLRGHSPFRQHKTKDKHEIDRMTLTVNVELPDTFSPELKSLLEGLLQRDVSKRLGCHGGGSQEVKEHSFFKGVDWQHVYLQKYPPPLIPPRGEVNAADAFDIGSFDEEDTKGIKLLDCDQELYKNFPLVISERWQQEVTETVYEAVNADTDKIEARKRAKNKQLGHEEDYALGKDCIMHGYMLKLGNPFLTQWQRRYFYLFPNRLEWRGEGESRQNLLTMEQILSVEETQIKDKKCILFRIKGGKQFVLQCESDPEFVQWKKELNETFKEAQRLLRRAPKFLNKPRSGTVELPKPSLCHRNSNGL

[8] = molecular target: T3, Phosphatidylinositol 5-phosphate 4-kinase type-2 beta (Homo sapiens) (UniProt P78356); assay: Selectivity interaction (KinomeScan (DiscoverX)) EUB0001619a PIP4K2B; conditions: at 1 µM
T3 sequence (whole entry): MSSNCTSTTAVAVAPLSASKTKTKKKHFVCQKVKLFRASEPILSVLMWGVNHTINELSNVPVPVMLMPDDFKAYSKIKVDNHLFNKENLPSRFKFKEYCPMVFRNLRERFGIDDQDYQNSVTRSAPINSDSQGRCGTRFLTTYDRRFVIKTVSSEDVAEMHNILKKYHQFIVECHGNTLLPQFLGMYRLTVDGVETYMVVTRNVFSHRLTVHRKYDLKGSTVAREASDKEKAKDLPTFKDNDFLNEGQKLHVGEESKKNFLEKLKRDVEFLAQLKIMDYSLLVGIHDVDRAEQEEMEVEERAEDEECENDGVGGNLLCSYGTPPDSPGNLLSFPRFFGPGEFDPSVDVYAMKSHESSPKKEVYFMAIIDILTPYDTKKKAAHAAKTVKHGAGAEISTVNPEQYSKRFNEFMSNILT

[9] = molecular target: Cyclin-dependent kinase 16 (Homo sapiens) (UniProt Q00536); assay: Selectivity interaction (KinomeScan (DiscoverX)) EUB0000607a CDK16; conditions: at 10 µM
Chain of Cyclin-dependent kinase 16 (Homo sapiens) (Q00536 whole entry): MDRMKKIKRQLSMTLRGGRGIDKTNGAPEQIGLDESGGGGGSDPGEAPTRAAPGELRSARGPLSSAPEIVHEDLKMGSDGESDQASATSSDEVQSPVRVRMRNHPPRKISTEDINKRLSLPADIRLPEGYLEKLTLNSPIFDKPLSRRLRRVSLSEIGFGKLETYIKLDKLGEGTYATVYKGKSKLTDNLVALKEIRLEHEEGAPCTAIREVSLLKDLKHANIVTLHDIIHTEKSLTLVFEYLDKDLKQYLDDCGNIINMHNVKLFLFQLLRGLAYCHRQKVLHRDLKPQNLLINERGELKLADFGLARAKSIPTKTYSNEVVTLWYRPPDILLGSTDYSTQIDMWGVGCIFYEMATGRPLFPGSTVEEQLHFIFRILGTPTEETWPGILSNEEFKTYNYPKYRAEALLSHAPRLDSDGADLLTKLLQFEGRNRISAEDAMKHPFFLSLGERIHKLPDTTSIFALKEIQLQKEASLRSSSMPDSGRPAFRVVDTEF

[10] = molecular target: RAC-gamma serine/threonine-protein kinase (Homo sapiens, UniProt Q9Y243); assay: Selectivity interaction (Kinase panel (DSF assay)) EUB0001558a AKT3
Chain of RAC-gamma serine/threonine-protein kinase (Q9Y243 whole entry): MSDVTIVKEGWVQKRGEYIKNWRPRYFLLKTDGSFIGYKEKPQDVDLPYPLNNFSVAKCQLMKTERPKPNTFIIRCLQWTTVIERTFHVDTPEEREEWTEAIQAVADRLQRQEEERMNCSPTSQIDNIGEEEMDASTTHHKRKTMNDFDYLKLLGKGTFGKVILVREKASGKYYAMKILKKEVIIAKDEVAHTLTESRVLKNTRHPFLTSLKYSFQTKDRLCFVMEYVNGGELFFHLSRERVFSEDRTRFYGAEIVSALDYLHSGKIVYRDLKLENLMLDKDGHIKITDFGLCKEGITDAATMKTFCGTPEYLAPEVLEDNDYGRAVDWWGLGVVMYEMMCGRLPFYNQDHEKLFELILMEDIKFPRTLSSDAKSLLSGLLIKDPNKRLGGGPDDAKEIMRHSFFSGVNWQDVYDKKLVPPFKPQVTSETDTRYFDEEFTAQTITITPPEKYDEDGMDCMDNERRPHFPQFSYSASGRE

[11] = molecular target: T4, Uncharacterized serine/threonine-protein kinase SBK3 (Homo sapiens) (UniProt P0C264); assay: Selectivity interaction (KinomeScan (DiscoverX)) EUB0000655a SBK3; conditions: at 10 µM
T4 sequence (whole entry): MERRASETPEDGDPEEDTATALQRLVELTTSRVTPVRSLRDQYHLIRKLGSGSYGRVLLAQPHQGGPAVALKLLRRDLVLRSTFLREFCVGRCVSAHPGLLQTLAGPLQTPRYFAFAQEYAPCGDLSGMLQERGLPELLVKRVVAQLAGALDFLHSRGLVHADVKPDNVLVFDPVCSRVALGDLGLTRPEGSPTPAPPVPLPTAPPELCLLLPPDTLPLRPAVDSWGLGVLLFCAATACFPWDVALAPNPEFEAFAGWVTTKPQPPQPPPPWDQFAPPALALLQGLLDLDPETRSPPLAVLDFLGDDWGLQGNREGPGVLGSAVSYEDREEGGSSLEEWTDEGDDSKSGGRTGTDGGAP

Chain of Serine/threonine-protein kinase pim-2 (Q9P1W9 whole entry, looked up): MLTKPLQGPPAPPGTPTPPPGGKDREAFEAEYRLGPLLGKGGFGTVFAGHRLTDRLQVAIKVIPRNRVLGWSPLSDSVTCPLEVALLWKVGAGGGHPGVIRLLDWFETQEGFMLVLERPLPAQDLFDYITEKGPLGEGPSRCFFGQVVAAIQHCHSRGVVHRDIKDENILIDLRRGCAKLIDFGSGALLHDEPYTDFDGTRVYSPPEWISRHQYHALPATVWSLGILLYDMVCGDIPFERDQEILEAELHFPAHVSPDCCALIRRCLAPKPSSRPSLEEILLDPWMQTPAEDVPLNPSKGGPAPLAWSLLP

## COCC(=O)NC/C=C/c1ccc2ncnc(Nc3ccc(Oc4ccc(C)nc4)c(C)c3)c2c1 [CP-724714]
[1]
  % of control: 100%

## C=CC(=O)Nc1cc(-n2c(=O)ccc3cnc4ccc(-c5ccc(NS(C)(=O)=O)cc5)cc4c32)ccc1C
[2]
  % of control: 100%

## Cn1cc(-n2cnc3c(NCc4nc5cc(Cl)c(Cl)cc5[nH]4)nc(N4CCOCC4)nc32)cn1
[3]
  % of control: 13.1%

## O=C(NOC[C@H](O)CO)c1ccc(F)c(F)c1Nc1ccc(I)cc1F
[4]
  % of control: 83%

## Cc1cc([C@@H](C)Nc2ccccc2C(=O)O)c2nc(N3CCOCC3)cc(=O)n2c1 [AZD-6482]
[5]
  % of control: 95%

## Cc1cnc(Nc2ccc(F)cc2Cl)nc1-c1c[nH]c(C(=O)N[C@H](CO)c2cccc(Cl)c2)c1
[6]
  % of inhibition: 3%

## COc1cc(Nc2nc(C)cc(-c3cnn4nc(OC)ccc34)n2)cc(C(F)(F)F)c1
[7]
  % of control: 100%

## N#Cc1cccc(-c2c[nH]c3ncnc(N4CCOCC4)c23)c1
[8]
  % of control: 23%

## CNC(=O)Nc1ccc(-c2nc(N3CC4CCC(C3)O4)c3cnn(C4CCC5(CC4)OCCO5)c3n2)cc1
[9]
  % of control: 100%

## CC(C)(O)[C@H](F)CN1Cc2cc(NC(=O)c3cnn4cccnc34)c(N3CCOCC3)cc2C1=O
[10]
  dTM: 0.1 K

## CN(C)CCOc1ccc(-c2nc(-c3ccncc3)c(-c3ccc4c(c3)CC/C4=N\O)[nH]2)cc1
[11]
  % of control: 100%
